Patent US8987267B2, “2-substituted-8-alkyl-7-OXO-7,8-dihydropyrido[2,3-D]pyrimidine-6-carbonitriles and uses thereof in treating proliferative disorders” (Temple University—of the Commonwealth System of Higher …, priority 2010, dated 2015)

How the values were obtained:
Assay type in all cases: biochemical
TTK = TTK (Homo sapiens, UniProt P33981); test: Kinase inhibition panel; conditions: 10 μM ATP
CDK2/cyclinE = CDK2/cyclinE (Homo sapiens, UniProt P24941); test: Kinase inhibition panel; conditions: 10 μM ATP
Description: (§1) The compounds in Table 4 were tested for the ability to inhibit the kinase activity of the listed protein kinases.

CDK2/cyclinA = CDK2/cyclinA (Homo sapiens, UniProt P24941); test: Kinase inhibition panel; conditions: 10 μM ATP
Description: as §1

CDK3/cyclinE = CDK3/cyclinE (Homo sapiens, UniProt Q00526); test: Kinase inhibition panel; conditions: 10 μM ATP
Description: as §1

FLTINEGFRI = FLTINEGFRI (Homo sapiens, UniProt P17948); test: Kinase inhibition panel; conditions: 10 μM ATP
Description: as §1

FGFR1 = FGFR1 (Homo sapiens, UniProt P11362); test: Kinase inhibition panel; conditions: 10 μM ATP
Description: as §1

RIPK2 = RIPK2 (Homo sapiens, UniProt O43353); test: Kinase inhibition panel; conditions: 10 μM ATP
Description: as §1

LIMK1 = LIMK1 (Homo sapiens, UniProt P53667); test: Kinase inhibition panel; conditions: 10 μM ATP
Description: as §1

CDK5/p35 = CDK5/p35 (Homo sapiens, UniProt Q00535); test: Kinase inhibition panel; conditions: 10 μM ATP
Description: as §1

LYNB = LYNB (Homo sapiens, UniProt P07948); test: Kinase inhibition panel; conditions: 10 μM ATP
Description: as §1

LOK/STK10 = LOK/STK10 (Homo sapiens, UniProt O94804); test: Kinase inhibition panel; conditions: 10 μM ATP
Description: as §1

SNARK/NUAK2 = SNARK/NUAK2 (Homo sapiens, UniProt Q9H093); test: Kinase inhibition panel; conditions: 10 μM ATP
Description: as §1

FGFR3 = FGFR3 (Homo sapiens, UniProt P22607); test: Kinase inhibition panel; conditions: 10 μM ATP
Description: as §1

c-Src = c-Src (Homo sapiens, UniProt P12931); test: Kinase inhibition panel; conditions: 10 μM ATP
Description: as §1

ABL1 = ABL1 (Homo sapiens, UniProt P00519); test: Kinase inhibition panel; conditions: 10 μM ATP
Description: as §1

CDK4/Cyclin D1 = CDK4/Cyclin D1 (Homo sapiens, UniProt P11802); test: Kinase inhibition panel; conditions: 10 μM ATP
Description: as §1

FMS = FMS (Homo sapiens, UniProt P07333); test: Kinase inhibition panel; conditions: 10 μM ATP
Description: as §1

[1] = target: T1, His-tagged full length ARK5 (Homo sapiens, UniProt O60285); test: ARK5 Kinase Assay (ARK5 Inhibition Assay); conditions: CHKtide substrate, 1 μM ATP
T1 construct: 20 ng His-tagged full length ARK5 (Invitrogen PV4127); His; purchased Invitrogen PV4127
T1 sequence (O60285 1-661): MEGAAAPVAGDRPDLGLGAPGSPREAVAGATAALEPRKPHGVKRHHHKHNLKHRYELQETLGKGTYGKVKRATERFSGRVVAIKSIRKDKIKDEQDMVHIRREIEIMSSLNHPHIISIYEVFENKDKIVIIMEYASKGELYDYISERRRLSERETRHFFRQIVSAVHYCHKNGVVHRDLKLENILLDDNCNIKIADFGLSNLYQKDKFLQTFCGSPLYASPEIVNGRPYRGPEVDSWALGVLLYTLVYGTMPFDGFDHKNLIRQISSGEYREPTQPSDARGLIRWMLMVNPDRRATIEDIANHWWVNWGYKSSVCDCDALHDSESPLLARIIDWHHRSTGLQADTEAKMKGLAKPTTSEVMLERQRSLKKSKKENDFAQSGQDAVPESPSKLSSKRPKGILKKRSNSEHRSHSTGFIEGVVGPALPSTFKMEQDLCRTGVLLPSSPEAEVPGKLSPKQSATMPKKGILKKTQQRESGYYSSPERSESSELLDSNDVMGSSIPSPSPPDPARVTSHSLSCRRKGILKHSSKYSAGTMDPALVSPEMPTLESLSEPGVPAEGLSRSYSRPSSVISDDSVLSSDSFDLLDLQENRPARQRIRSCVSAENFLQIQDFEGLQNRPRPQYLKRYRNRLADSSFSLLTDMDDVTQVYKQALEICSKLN
Description: 20 ng His-tagged full length ARK5 (Invitrogen PV4127), a protein kinase, was diluted into kinase buffer (25 mM HEPES pH 7.5, 10 mM MgCl2, 0.5 mM EGTA, 0.5 mM Na3V04, 5 mM β Glycerophosphate, 2.5 mM DTT, 0.01% Triton X-100) and incubated with the indicated concentration of a compound of Table 3 at room temperature for 30 minutes. The kinase reactions were then initiated by the addition of 1 μg (3.28 μM) CHKtide substrate peptide (Upstate 12-414), 1 μM ATP and 10 μCi γ^32 P-ATP. The reactions were incubated at 30° C. for 10 minutes.
Subsequently, the reactions were stopped by adding 3% phosphoric acid. A 10 μl aliquot was then transferred to an appropriate area of a p30 filtermat. The filtermat was allowed to dry for 20 minutes at room temperature and then washed three times with 75 mM phosphoric acid and twice with methanol. The filtermat was then dried for 20 minutes at room temperature. The filtermat was then exposed to X ray film or read in a scintillation counter. The scintillation counting values were plotted as function of log drug concentration using Prism 4 Graph pad software and IC50 values determined by plotting sigmoidal non-linear regression curves with variable slope.

CDK9/cyclinT1 = CDK9/cyclinT1 (Homo sapiens, UniProt P50750); test: Kinase inhibition panel; conditions: 10 μM ATP
FYN = FYN (Homo sapiens, UniProt P06241); test: Kinase inhibition panel; conditions: 10 μM ATP
NLK = NLK (Homo sapiens, UniProt Q9UBE8); test: Kinase inhibition panel; conditions: 10 μM ATP
PKCnu/PRK D3 = PKCnu/PRK D3 (Homo sapiens, UniProt O94806); test: Kinase inhibition panel; conditions: 10 μM ATP
FGFR4 = FGFR4 (Homo sapiens, UniProt P22455); test: Kinase inhibition panel; conditions: 10 μM ATP
EPHA2 = EPHA2 (Homo sapiens, UniProt P29317); test: Kinase inhibition panel; conditions: 10 μM ATP
c-Kit = c-Kit (Homo sapiens, UniProt P10721); test: Kinase inhibition panel; conditions: 10 μM ATP
ARK5 = ARK5 (Homo sapiens, UniProt O60285); test: Kinase inhibition panel; conditions: 10 μM ATP

Sequence of LIMK1 (P53667 whole entry, species assumed): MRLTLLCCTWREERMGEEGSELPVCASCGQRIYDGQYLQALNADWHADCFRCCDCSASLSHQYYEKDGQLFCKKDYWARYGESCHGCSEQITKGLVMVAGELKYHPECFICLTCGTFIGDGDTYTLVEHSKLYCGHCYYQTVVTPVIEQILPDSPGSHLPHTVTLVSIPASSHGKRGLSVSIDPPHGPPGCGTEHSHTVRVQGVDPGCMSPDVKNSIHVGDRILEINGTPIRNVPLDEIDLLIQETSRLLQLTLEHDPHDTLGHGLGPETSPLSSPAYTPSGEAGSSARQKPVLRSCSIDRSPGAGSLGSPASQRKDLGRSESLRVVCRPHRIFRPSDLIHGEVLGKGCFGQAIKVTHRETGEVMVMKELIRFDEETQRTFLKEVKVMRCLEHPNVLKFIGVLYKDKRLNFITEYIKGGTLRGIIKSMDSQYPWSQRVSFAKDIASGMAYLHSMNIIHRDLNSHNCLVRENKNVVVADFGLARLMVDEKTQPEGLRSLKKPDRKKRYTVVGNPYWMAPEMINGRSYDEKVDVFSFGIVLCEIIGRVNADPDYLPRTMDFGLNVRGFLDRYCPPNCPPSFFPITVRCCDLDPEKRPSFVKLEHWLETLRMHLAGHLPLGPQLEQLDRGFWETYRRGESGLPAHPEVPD
Sequence of CDK9/cyclinT1 (P50750 whole entry, species assumed): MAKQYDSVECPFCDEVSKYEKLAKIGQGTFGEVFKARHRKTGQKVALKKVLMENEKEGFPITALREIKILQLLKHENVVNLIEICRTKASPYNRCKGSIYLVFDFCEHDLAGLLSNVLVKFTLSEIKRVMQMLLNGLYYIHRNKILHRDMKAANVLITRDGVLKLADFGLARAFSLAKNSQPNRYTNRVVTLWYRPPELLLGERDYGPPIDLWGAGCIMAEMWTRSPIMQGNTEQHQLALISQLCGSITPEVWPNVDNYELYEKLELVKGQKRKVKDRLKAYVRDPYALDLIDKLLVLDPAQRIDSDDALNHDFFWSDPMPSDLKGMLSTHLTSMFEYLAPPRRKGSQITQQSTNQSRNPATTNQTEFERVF
Sequence of CDK9/cyclinT1 (O60563 whole entry partner, species assumed): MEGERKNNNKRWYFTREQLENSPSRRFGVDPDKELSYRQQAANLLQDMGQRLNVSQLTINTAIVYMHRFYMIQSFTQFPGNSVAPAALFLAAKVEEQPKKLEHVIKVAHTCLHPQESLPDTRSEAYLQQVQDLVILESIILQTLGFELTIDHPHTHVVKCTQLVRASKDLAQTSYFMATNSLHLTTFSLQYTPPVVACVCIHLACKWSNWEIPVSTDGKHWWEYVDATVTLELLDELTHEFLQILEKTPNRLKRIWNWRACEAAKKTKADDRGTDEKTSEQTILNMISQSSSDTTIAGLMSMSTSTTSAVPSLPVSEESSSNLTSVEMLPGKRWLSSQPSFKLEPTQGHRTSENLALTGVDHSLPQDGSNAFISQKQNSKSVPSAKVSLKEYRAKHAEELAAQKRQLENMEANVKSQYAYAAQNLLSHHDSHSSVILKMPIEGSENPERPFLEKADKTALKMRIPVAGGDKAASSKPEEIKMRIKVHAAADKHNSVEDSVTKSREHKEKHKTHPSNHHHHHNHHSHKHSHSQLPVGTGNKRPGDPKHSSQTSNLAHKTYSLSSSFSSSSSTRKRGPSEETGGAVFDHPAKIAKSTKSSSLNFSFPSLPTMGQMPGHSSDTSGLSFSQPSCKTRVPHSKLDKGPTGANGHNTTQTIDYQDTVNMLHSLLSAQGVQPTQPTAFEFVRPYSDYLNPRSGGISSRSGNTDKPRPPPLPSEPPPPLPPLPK
Sequence of LYNB (P07948 1-491 isoform P07948-2, species assumed): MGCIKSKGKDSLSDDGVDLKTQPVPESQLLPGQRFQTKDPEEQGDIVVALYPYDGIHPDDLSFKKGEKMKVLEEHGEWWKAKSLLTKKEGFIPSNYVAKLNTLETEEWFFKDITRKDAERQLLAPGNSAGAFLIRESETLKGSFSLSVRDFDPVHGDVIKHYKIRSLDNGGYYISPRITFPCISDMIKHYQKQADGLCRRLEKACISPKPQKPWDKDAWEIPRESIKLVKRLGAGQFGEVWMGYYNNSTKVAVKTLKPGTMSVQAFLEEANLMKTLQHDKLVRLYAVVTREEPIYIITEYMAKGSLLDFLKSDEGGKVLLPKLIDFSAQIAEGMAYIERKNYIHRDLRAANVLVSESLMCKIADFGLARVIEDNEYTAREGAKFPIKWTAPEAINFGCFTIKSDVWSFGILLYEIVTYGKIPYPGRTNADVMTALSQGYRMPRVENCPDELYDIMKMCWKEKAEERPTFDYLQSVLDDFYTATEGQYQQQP
Sequence of FGFR3 (P22607 23-806, species assumed): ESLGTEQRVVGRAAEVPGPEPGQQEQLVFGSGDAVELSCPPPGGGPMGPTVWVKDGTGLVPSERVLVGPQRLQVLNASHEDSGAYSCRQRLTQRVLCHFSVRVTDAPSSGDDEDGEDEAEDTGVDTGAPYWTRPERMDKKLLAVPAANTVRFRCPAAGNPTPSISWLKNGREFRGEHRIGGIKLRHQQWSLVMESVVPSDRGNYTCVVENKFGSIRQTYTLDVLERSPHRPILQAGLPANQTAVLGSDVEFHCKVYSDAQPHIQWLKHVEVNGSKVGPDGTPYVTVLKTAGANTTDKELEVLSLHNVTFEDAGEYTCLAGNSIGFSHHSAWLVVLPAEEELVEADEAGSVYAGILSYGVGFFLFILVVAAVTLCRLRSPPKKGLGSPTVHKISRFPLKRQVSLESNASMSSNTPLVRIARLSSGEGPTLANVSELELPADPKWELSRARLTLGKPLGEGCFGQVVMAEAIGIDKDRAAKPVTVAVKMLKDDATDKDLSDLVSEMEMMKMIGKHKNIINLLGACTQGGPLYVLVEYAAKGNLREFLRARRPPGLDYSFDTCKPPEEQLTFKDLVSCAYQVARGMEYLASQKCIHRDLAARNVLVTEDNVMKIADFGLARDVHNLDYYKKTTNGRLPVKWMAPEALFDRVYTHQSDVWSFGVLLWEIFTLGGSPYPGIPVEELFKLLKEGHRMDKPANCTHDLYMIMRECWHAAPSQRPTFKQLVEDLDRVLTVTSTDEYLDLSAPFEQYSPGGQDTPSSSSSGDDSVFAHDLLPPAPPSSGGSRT
Sequence of FGFR1 (P11362 22-822, species assumed): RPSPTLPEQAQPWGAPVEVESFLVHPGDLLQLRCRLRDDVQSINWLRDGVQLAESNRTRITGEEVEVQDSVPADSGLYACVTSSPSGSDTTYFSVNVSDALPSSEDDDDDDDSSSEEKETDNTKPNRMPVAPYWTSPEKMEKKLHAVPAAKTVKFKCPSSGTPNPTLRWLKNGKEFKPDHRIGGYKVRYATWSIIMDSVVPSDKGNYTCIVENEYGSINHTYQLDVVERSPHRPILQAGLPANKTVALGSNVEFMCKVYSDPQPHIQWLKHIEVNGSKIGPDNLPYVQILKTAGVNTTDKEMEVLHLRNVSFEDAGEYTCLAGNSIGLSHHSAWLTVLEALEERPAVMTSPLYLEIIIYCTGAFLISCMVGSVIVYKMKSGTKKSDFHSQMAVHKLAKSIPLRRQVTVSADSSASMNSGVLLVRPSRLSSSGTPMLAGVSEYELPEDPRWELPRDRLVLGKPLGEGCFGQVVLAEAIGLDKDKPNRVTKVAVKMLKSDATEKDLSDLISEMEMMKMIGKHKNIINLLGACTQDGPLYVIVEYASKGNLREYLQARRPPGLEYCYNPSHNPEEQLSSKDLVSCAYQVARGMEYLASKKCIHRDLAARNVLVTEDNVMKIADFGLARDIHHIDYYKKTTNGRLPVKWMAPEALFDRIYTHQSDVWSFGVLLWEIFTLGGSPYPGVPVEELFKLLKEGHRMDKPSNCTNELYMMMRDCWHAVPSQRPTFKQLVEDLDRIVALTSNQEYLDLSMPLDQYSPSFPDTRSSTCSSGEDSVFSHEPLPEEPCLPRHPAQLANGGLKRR
Sequence of NLK (Q9UBE8 whole entry): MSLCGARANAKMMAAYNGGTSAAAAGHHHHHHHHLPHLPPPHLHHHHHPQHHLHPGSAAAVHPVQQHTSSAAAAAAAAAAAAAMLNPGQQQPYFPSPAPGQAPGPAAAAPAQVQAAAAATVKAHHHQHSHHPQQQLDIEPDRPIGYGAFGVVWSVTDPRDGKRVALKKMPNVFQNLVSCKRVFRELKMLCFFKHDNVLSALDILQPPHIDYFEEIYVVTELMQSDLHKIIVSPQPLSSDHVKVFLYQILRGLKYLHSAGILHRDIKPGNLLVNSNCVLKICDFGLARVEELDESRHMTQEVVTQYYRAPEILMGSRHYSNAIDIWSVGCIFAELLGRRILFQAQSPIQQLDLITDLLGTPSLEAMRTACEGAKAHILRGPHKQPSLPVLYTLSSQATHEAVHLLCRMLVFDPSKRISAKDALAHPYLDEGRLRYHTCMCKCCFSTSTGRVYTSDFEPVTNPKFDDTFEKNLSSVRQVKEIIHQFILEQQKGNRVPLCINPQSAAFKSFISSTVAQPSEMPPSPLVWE
Sequence of c-Src (P12931 whole entry, species assumed): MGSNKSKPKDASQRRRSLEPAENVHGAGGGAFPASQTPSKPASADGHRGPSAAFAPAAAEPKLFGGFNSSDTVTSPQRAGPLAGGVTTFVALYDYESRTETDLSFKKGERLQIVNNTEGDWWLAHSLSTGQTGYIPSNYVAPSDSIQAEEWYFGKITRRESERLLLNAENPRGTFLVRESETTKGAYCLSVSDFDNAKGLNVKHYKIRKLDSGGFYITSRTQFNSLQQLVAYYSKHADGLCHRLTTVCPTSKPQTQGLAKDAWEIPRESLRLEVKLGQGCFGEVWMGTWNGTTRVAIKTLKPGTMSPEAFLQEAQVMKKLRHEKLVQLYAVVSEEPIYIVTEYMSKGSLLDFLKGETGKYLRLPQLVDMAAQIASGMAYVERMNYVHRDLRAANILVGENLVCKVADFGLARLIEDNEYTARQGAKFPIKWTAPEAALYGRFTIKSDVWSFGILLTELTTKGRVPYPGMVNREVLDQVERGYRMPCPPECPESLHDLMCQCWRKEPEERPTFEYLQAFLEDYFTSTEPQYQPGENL

IC50 (TTK): 156 nM
IC50 (CDK2/cyclinE): 770 nM
IC50 (CDK2/cyclinA): 97.3 nM
IC50 (CDK3/cyclinE): 3220 nM
IC50 (FLTINEGFRI): 94.1 nM
IC50 (FGFR1): 68.2 nM
IC50 (RIPK2): 40.8 nM
IC50 (LIMK1): 70.8 nM
IC50 (CDK5/p35): 181 nM
IC50 (LYNB): 6650 nM
IC50 (LOK/STK10): 181 nM
IC50 (SNARK/NUAK2): 20.7 nM
IC50 (FGFR3): 124 nM
IC50 (c-Src): 93 nM
IC50 (ABL1): 75.6 nM
IC50 (CDK4/Cyclin D1): 4 nM
IC50 (FMS): 1.46 nM
IC50 [1]: 27.3 nM
IC50 (CDK9/cyclinT1): 85.4 nM
IC50 (FYN): 26.6 nM
IC50 (NLK): 45.3 nM
IC50 (PKCnu/PRK D3): 55.8 nM
IC50 (FGFR4): 3550 nM
IC50 (EPHA2): 114 nM
IC50 (c-Kit): 408 nM
IC50 (ARK5): 7.85 nM
SMILES: CN1CCN(c2ccc(Nc3ncc4cc(C#N)c(=O)n(C5CCCC5)c4n3)cc2)CC1 [Compound 12, 8-cyclopentyl-2-((4-(4-methylpiperazin-1-yl)phenyl)amino)-7-oxo-7,8-dihydropyrido[2,3-d]pyrimidine-6-carbonitrile]
